PubChem BioAssay AID2060604 (Molecular Pharmacology Branch, DTP, NCI, 2025)
Several values for one entry are separate records, joined by “and”; a condition that tells them apart may be missing. Equal entries are not always repeated.

Tested on: 379773-124-R-J2-PDC complex spheroids, viability % test/control
Assay: Anticancer human tumor 379773-124-R-J2-PDC patient-derived endometrial carcinoma cell line growth inhibition [CLK]
Conditions: for viability, T/C: stronger effect = lower value; active = viability on the fitted dose curve at most 10% of control; inactive = the rest
How it was run: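 Patient-derived tumor cells grown as complex spheroids with HUVEC endothelial cells and mesenchymal stem cells, treated with drug combinations. Concentrations descend in half-log steps from near clinical Cmax, or from 10 microM if Cmax unknown.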

[1] = curve of first compound, second compound 0.0316 µM
[2] = curve of first compound, second compound 0.1 µM
[3] = curve of first compound, second compound 0.316 µM
[4] = curve of first compound, second compound 1 µM
[5] = curve of first compound, second compound 3.16 µM
[6] = curve of first compound, second compound 10 µM
[7] = second compound 0.0316 µM, first compound 0.0316 µM
[8] = second compound 0.0316 µM, first compound 0.1 µM
[9] = second compound 0.0316 µM, first compound 0.316 µM
[10] = second compound 0.0316 µM, first compound 1 µM
[11] = second compound 0.0316 µM, first compound 3.16 µM
[12] = second compound 0.0316 µM, first compound 10 µM
[13] = second compound 0.1 µM, first compound 0.0316 µM
[14] = second compound 0.1 µM, first compound 0.1 µM
[15] = second compound 0.1 µM, first compound 0.316 µM
[16] = second compound 0.1 µM, first compound 1 µM
[17] = second compound 0.1 µM, first compound 3.16 µM
[18] = second compound 0.1 µM, first compound 10 µM
[19] = second compound 0.316 µM, first compound 0.0316 µM
[20] = second compound 0.316 µM, first compound 0.1 µM
[21] = second compound 0.316 µM, first compound 0.316 µM
[22] = second compound 0.316 µM, first compound 1 µM
[23] = second compound 0.316 µM, first compound 3.16 µM
[24] = second compound 0.316 µM, first compound 10 µM
[25] = second compound 1 µM, first compound 0.0316 µM
[26] = second compound 1 µM, first compound 0.1 µM
[27] = second compound 1 µM, first compound 0.316 µM
[28] = second compound 1 µM, first compound 1 µM
[29] = second compound 1 µM, first compound 3.16 µM
[30] = second compound 1 µM, first compound 10 µM
[31] = second compound 3.16 µM, first compound 0.0316 µM
[32] = second compound 3.16 µM, first compound 0.1 µM
[33] = second compound 3.16 µM, first compound 0.316 µM
[34] = second compound 3.16 µM, first compound 1 µM
[35] = second compound 3.16 µM, first compound 3.16 µM
[36] = second compound 3.16 µM, first compound 10 µM
[37] = second compound 10 µM, first compound 0.0316 µM
[38] = second compound 10 µM, first compound 0.1 µM
[39] = second compound 10 µM, first compound 0.316 µM
[40] = second compound 10 µM, first compound 1 µM
[41] = second compound 10 µM, first compound 3.16 µM
[42] = second compound 10 µM, first compound 10 µM
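Note: compound exposure lasted seven days before the viability readout.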
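Throughout, for viability, T/C: 100% = DMSO vehicle control wells.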

CC1COCCN1c1cc(C2(S(C)(=N)=O)CC2)nc(-c2ccnc3[nH]ccc23)n1 (stereo unspecified) + CNC(=O)c1ccc(Nc2nc(OC3CCCC3)c3c(-c4ccc5nc(C)oc5c4)c[nH]c3n2)c(OC)c1
active: viability, T/C [12] 9.32% | viability, T/C [30] 5.75% | viability, T/C [42] 4.37%
inactive: viability, T/C [7] 78% | viability, T/C [8] 83.8% | viability, T/C [9] 86.2% | viability, T/C [10] 67.2% | viability, T/C [11] 34.5% | viability, T/C [13] 42.7% | viability, T/C [14] 44.6% | viability, T/C [15] 36.1% | viability, T/C [16] 42.7% | viability, T/C [17] 26% | viability, T/C [18] 9.26% | viability, T/C [19] 42.6% | viability, T/C [20] 38.5% | viability, T/C [21] 39.1% | viability, T/C [22] 41.5% | viability, T/C [23] 30.1% | viability, T/C [24] 12.7% | viability, T/C [25] 40.6% | viability, T/C [26] 36.1% | viability, T/C [27] 37% | viability, T/C [28] 36.5% | viability, T/C [29] 20.5% | viability, T/C [31] 27.9% | viability, T/C [32] 34% | viability, T/C [33] 31.9% | viability, T/C [34] 31.4% | viability, T/C [35] 21.4% | viability, T/C [36] 5.79% | viability, T/C [37] 29.7% | viability, T/C [38] 40.1% | viability, T/C [39] 28.9% | viability, T/C [40] 24.9% | viability, T/C [41] 24.2%
< 31.6 nM: IC50 [2] | IC50 [3] | IC50 [4] | IC50 [5] | IC50 [6]
1870 nM: IC50 [1]

Cn1ncnc1[C@H]1c2n[nH]c(=O)c3cc(F)cc(c23)N[C@@H]1c1ccc(F)cc1
inactive: viability, T/C (compound 0.000316 µM) 97.3% and 82.2% | viability, T/C (compound 0.001 µM) 100% and 79.8% | viability, T/C (compound 0.00316 µM) 86.3% and 79.5% | viability, T/C (compound 0.01 µM) 86.8% and 79.1% | viability, T/C (compound 0.0316 µM) 72.3% and 49% | viability, T/C (compound 0.1 µM) 38.9% and 26.1%
67.6 nM and 30.5 nM: IC50 (curve of compound)

COc1ccc([C@@H](O)c2cc(-c3ncnc4cc(N5CCOCC5)ccc34)c(F)cc2Cl)nn1 + CN1CCN(c2cc(C(=O)Nc3cc4cc(-c5cnn(C)c5)ccc4cn3)ccn2)CC1
inactive: viability, T/C [7] 87.4% | viability, T/C [8] 80.7% | viability, T/C [9] 96.9% | viability, T/C [10] 79.2% | viability, T/C [11] 71.8% | viability, T/C [12] 24.4% | viability, T/C [13] 70.2% | viability, T/C [14] 76.5% | viability, T/C [15] 86.2% | viability, T/C [16] 47% | viability, T/C [17] 55% | viability, T/C [18] 19.1% | viability, T/C [19] 14.9% | viability, T/C [20] 16.6% | viability, T/C [21] 16.6% | viability, T/C [22] 17.7% | viability, T/C [23] 12.9% | viability, T/C [24] 5.38%
5320 nM: IC50 [1]
< 31.6 nM: IC50 [3] | IC50 [4] | IC50 [5] | IC50 [6]
active: viability, T/C [25] 0.1% | viability, T/C [26] 0.09% | viability, T/C [27] 0.11% | viability, T/C [28] 0.05% | viability, T/C [29] 1.5% | viability, T/C [30] 0.08% | viability, T/C [31] 0.65% | viability, T/C [32] 1.73% | viability, T/C [33] 0.73% | viability, T/C [34] 0.06% | viability, T/C [35] 0.09% | viability, T/C [36] 0.08% | viability, T/C [37] 0.49% | viability, T/C [38] 0.1% | viability, T/C [39] 0.79% | viability, T/C [40] 0.11% | viability, T/C [41] 0.24% | viability, T/C [42] 0.14%
2820 nM: IC50 [2]
